Test results taken from publication PMC7725003, “Systematically Studying the Optimal Amino Acid Distribution Patterns of the Amphiphilic Structure by Using the Ultrashort Amphiphiles” (Frontiers in Microbiology, 2020).
Where no end group is shown, it is not given here.

Key:
S. aureus 29213 [1] = assay: Salt sensitivity assay (MIC); assay type: cell-based, Staphylococcus aureus; settings: for MIC, FeCl3: 4 μM FeCl3; for MIC, NH4Cl: 6 μM NH4Cl; for MIC, ZnCl2: 8 μM ZnCl2; for MIC, MgCl2: 1 mM MgCl2; for MIC, CaCl2: 2 mM CaCl2; for MIC, KCl: 4.5 mM KCl; for MIC, NaCl: 150 mM NaCl; for MIC, Control: no added salt, three independent assays
Protocol: (§1) The antimicrobial activities of the peptides were measured using a method adapted from the National Committee for Clinical Laboratory Standards (NCCLS) with some modifications ([Chou et al., 2016]). The specific procedure for these assays has been previously described. In brief, the bacterial cells were grown to a mid-logarithmic phase and diluted in MHB to an ultimate concentration of 0.5–1 × 10^6 CFU mL^–1. Subsequently, the peptides were consecutively diluted in a 0.2% BSA solution and then added to a bacterial solution in a 96-well plate at identical volumes. After incubation for 24 h at 37°C, the MICs were determined to be the lowest peptide concentration that inhibited 95% of the bacterial growth by monitoring the absorbance at 492 nm using a microplate reader. Subsequently, 50 μL of each incubation mixture was further transferred to agar plates and incubated overnight. The minimum bactericidal concentrations (MBCs) were determined as the lowest peptide concentration that killed greater than 99.9% of the bacterial cells. Every assay was reproduced more than 3 times.
(§2) The salt sensitivities of the peptides were determined. E. coli ATCC 25922 and S. aureus ATCC 29213 were incubated in the presence of various ultimate concentrations of physiological salts (150 mM NaCl, 4.5 mM KCl, 6 μM NH4Cl, 8 μM ZnCl2, 1 mM MgCl2, 2mM CaCl2, and 4 μM FeCl3) according to our previous protocol ([Yang et al., 2019]). These tests were performed under the MICs, and three independent assays were performed.

E. coli O78 = assay type: cell-based, Escherichia coli; settings: O78, 24 h
Protocol: as §1

E. coli UB1005 = assay type: cell-based, Escherichia coli; settings: UB1005, 24 h
Protocol: as §1

E. coli 25922 = assay type: cell-based, Escherichia coli; settings: 25922, 24 h
Protocol: as §1

P. aeruginosa 27853 = assay type: cell-based, Pseudomonas aeruginosa; settings: 27853, 24 h
Protocol: as §1

E. faecalis 29212 = assay type: cell-based, Enterococcus faecalis; settings: 29212, 24 h
Protocol: as §1

S. pullorum 7913 = assay type: cell-based, Salmonella pullorum; settings: 7913, 24 h
Protocol: as §1

S. typhimurium 14028 = assay type: cell-based, Salmonella typhimurium; settings: 14028, 24 h
Protocol: as §1

S. typhimurium 7731 = assay type: cell-based, Salmonella typhimurium; settings: 7731, 24 h
Protocol: as §1

Gram-negative bacteria = settings: for GM, Gram-negative bacteria: geometric mean of MICs (Table 3); for TI, Gram-negative bacteria: therapeutic index TI = MHC/GM MIC
Protocol: (§3) The antimicrobial activity of AMPs is the most decisive index for evaluating the clinical application of antimicrobial drugs.
as §1, with “The minimum bactericidal concentrations (MBCs) were determined as the lowest peptide concentration that killed greater than 99.9% of the bacterial cells.” left out

Gram-positive bacteria = settings: for GM, Gram-positive bacteria: geometric mean of MICs (Table 3); for TI, Gram-positive bacteria: therapeutic index TI = MHC/GM MIC
Protocol: as §3
as §1, with “The minimum bactericidal concentrations (MBCs) were determined as the lowest peptide concentration that killed greater than 99.9% of the bacterial cells.” left out

S. aureus 29213 [2] = assay type: cell-based, Staphylococcus aureus; settings: 29213, 24 h
Protocol: as §1

S. aureus 25923 = assay type: cell-based, Staphylococcus aureus; settings: 25923, 24 h
Protocol: as §1

E. coli ATCC 25922 = assay: Salt sensitivity assay (MIC); assay type: cell-based, Escherichia coli; settings: for MIC, FeCl3: 4 μM FeCl3; for MIC, NH4Cl: 6 μM NH4Cl; for MIC, ZnCl2: 8 μM ZnCl2; for MIC, MgCl2: 1 mM MgCl2; for MIC, CaCl2: 2 mM CaCl2; for MIC, KCl: 4.5 mM KCl; for MIC, NaCl: 150 mM NaCl; for MIC, Control: no added salt, three independent assays
Protocol: as §1, §2

[3] = tested on: Listeria monocytogenes CGMCC 1.1075; assay type: cell-based; settings: CGMCC 1.1075, 24 h
Protocol: as §1

B. subtilis 63501 = assay type: cell-based, Bacillus subtilis; settings: 63501, 24 h
Protocol: as §1

S. epidermidis 12228 = assay type: cell-based, Staphylococcus epidermidis; settings: 12228, 24 h
Protocol: as §1

[4] = tested on: all of the tested bacterial strains; assay: Geometric mean of MICs, all tested bacterial strains; assay type: cell-based; settings: for GM, All: geometric mean of MICs across all tested strains; for TI, All: therapeutic index TI = MHC/GM MIC
Text: The antimicrobial activity of AMPs is the most decisive index for evaluating the clinical application of antimicrobial drugs. Many antimicrobial agents inhibit bacterial growth rather than kill the bacteria quickly, and long-term infections are pathogens that are not completely killed, which results in bacterial severe drug resistance. […] The geometric mean (GM) values of the MICs/MBCs of the two series across all of the tested bacterial strains are represented in Table 3, which depicts the average bacteriostatic/bactericidal level of a peptide.
as §1

MRSA 43300 = assay type: cell-based, methicillin-resistant S. aureus; settings: 43300, 24 h
Protocol: as §1

RWRWRRWWW-NH2 [W9] was tested, and the MIC, FeCl3 (S. aureus 29213 [1]) was 2 µM, the MIC, NH4Cl (S. aureus 29213 [1]) was 2 µM and the MIC, ZnCl2 (S. aureus 29213 [1]) was 2 µM. It also gave an MIC, MgCl2 (S. aureus 29213 [1]) of 2 µM, an MIC, CaCl2 (S. aureus 29213 [1]) of 4 µM and an MIC, KCl (S. aureus 29213 [1]) of 2 µM. The MIC, NaCl (S. aureus 29213 [1]) was 2 µM, the MIC, Control (S. aureus 29213 [1]) was 2 µM and the MBC (E. coli O78) was 8 µM. The MIC (E. coli O78) was 4 µM, the MBC (E. coli UB1005) was 8 µM and the MIC (E. coli UB1005) was 4 µM. The MBC (E. coli 25922) was 8 µM, the MIC (E. coli 25922) was 4 µM and the MBC (P. aeruginosa 27853) was 16 µM. For the same substance, the MIC (P. aeruginosa 27853) was 8 µM, the MBC (E. faecalis 29212) was 8 µM and the MIC (E. faecalis 29212) was 4 µM. It also gave an MBC (S. pullorum 7913) of 8 µM, an MIC (S. pullorum 7913) of 4 µM and an MBC (S. typhimurium 14028) of 16 µM. The MIC (S. typhimurium 14028) was 8 µM, the MBC (S. typhimurium 7731) was 8 µM and the MIC (S. typhimurium 7731) was 4 µM. The “GM, Gram-negative bacteria” value (Gram-negative bacteria) was 4.67 µM, the “TI, Gram-negative bacteria” value (Gram-negative bacteria) was 54.82 and the “GM, Gram-positive bacteria” value (Gram-positive bacteria) was 2.44 µM. For the same substance, the “TI, Gram-positive bacteria” value (Gram-positive bacteria) was 104.92, the MBC (S. aureus 29213 [2]) was 4 µM and the MIC (S. aureus 29213 [2]) was 2 µM. It also gave an MBC (S. aureus 25923) of 4 µM, an MIC (S. aureus 25923) of 2 µM and an MIC, FeCl3 (E. coli ATCC 25922) of 4 µM. For the same substance, the MIC, NH4Cl (E. coli ATCC 25922) was 4 µM, the MIC, ZnCl2 (E. coli ATCC 25922) was 8 µM and the MIC, MgCl2 (E. coli ATCC 25922) was 8 µM. The MIC, CaCl2 (E. coli ATCC 25922) was 16 µM, the MIC, KCl (E. coli ATCC 25922) was 8 µM and the MIC, NaCl (E. coli ATCC 25922) was 16 µM. The MIC, Control (E. coli ATCC 25922) was 4 µM, the MBC [3] was 8 µM and the MIC [3] was 4 µM. The MBC (B. subtilis 63501) was 4 µM, the MIC (B. subtilis 63501) was 2 µM and the MBC (S. epidermidis 12228) was 4 µM. The MIC (S. epidermidis 12228) was 2 µM, the “GM, All” value [4] was 3.51 µM and the “TI, All” value [4] was 72.93. For the same substance, the MBC (MRSA 43300) was 4 µM and the MIC (MRSA 43300) was 2 µM.

With RWWWWRRWR-NH2 [W10] the MIC, FeCl3 (S. aureus 29213 [1]) was 1 µM, the MIC, NH4Cl (S. aureus 29213 [1]) was 1 µM and the MIC, ZnCl2 (S. aureus 29213 [1]) was 1 µM. For the same substance, the MIC, MgCl2 (S. aureus 29213 [1]) was 2 µM, the MIC, CaCl2 (S. aureus 29213 [1]) was 2 µM and the MIC, KCl (S. aureus 29213 [1]) was 2 µM. It also gave an MIC, NaCl (S. aureus 29213 [1]) of 2 µM, an MIC, Control (S. aureus 29213 [1]) of 2 µM and an MBC (E. coli O78) of 8 µM. It also gave an MIC (E. coli O78) of 4 µM, an MBC (E. coli UB1005) of 16 µM and an MIC (E. coli UB1005) of 8 µM. The MBC (E. coli 25922) was 16 µM, the MIC (E. coli 25922) was 8 µM and the MBC (P. aeruginosa 27853) was 8 µM. For the same substance, the MIC (P. aeruginosa 27853) was 4 µM, the MBC (E. faecalis 29212) was 8 µM and the MIC (E. faecalis 29212) was 4 µM. The MBC (S. pullorum 7913) was 32 µM, the MIC (S. pullorum 7913) was 16 µM and the MBC (S. typhimurium 14028) was 16 µM. It also gave an MIC (S. typhimurium 14028) of 8 µM, an MBC (S. typhimurium 7731) of 8 µM and an MIC (S. typhimurium 7731) of 4 µM. The “GM, Gram-negative bacteria” value (Gram-negative bacteria) was 5.44 µM, the “TI, Gram-negative bacteria” value (Gram-negative bacteria) was 47.06 and the “GM, Gram-positive bacteria” value (Gram-positive bacteria) was 2.21 µM. The “TI, Gram-positive bacteria” value (Gram-positive bacteria) was 115.84, the MBC (S. aureus 29213 [2]) was 4 µM and the MIC (S. aureus 29213 [2]) was 2 µM. It also gave an MBC (S. aureus 25923) of 4 µM, an MIC (S. aureus 25923) of 2 µM and an MIC, FeCl3 (E. coli ATCC 25922) of 4 µM. For the same substance, the MIC, NH4Cl (E. coli ATCC 25922) was 8 µM, the MIC, ZnCl2 (E. coli ATCC 25922) was 4 µM and the MIC, MgCl2 (E. coli ATCC 25922) was 16 µM. It also gave an MIC, CaCl2 (E. coli ATCC 25922) of 16 µM, an MIC, KCl (E. coli ATCC 25922) of 16 µM and an MIC, NaCl (E. coli ATCC 25922) of 32 µM. The MIC, Control (E. coli ATCC 25922) was 8 µM, the MBC [3] was 4 µM and the MIC [3] was 2 µM. It also gave an MBC (B. subtilis 63501) of 4 µM, an MIC (B. subtilis 63501) of 2 µM and an MBC (S. epidermidis 12228) of 4 µM. The MIC (S. epidermidis 12228) was 2 µM, the “GM, All” value [4] was 3.67 µM and the “TI, All” value [4] was 69.75. The MBC (MRSA 43300) was 4 µM and the MIC (MRSA 43300) was 2 µM.
